Where a name gives a salt, the structure may show the parent alone.
Experiments:
[1] = molecular target: T1, activated human C1 (Homo sapiens, UniProt P09871); experiment: Test Code 026 (C1-inhibitor); assay type: biochemical; details: serial twofold dilution assay; higher well number indicates higher activity
T1 construct: cleavage of fluid-phase human C2 in presence of C4
Description: (§1) An active inhibitor protects C2 from C1 and C4; (ii) Test Code 035 (C3-C9 inhibitor)--This test determines the ability of the late components of human complement (C3-C9) to lyse EAC 142 in the presence of appropriate dilutions of the test compound. An active inhibitor protects EAC 142 from lysis by human C3-C9; (iii) Test Code 036 (C-Shunt inhibitor)--In this test human erythrocytes rendered fragile are lysed in autologous serum via the shunt pathway activated by cobra venom factor in the presence of appropriate dilutions of the test compound. Inhibition of the shunt pathway results in failure of lysis; (iv) Forssman Vasculitis Test--Here, the well known complement dependent lesion, Forssman vasculitis, is produced in guinea pigs by intradermal injection of rabbit anti-Forssman antiserum. The lesion is measured in terms of diameter, edema and hemorrhage and the extent to which a combined index of these is inhibited by prior intraperitoneal injection of the test compound at 200 mg/kg is then reported, unless otherwise stated; (v) Forssman Shock Test--Lethal shock is produced in guinea pigs by an i.v. injection of anti-Forssman antiserum and the harmonic mean death time of treated guinea pigs is compared with that of simultaneous controls; (vi) Complement Level Reduction Test--In this test, the above dosed guinea pigs, or others, are bled for serum and the complement level is determined in undiluted serum by the capillary tube method of U.S. Pat. No. 3,876,376 and compared to undosed control guinea pigs; and (vii) Cap 50 Test--Here, appropriate amounts of the test compound are added to a pool of guinea pig serum in vitro, after which the undiluted serum capillary tube assay referred to above is run. The concentration of compound inhibiting 50% is reported.

[2] = tested on: shunt pathway activated by cobra venom factor; experiment: Test Code 036 (C-Shunt inhibitor), lysis of human erythrocytes in autologous serum, cobra venom factor; assay type: cell-based; details: serial twofold dilution assay; higher well number indicates higher activity
Description: as §1

[3] = tested on: late components of human complement (C3-C9); experiment: Test Code 035 (C3-C9 inhibitor), lysis of EAC 142; assay type: biochemical; details: serial twofold dilution assay; higher well number indicates higher activity
Description: as §1

[4] = tested on: complement system; details: known from the literature; cited from earlier work

T1 sequence (P09871 16-688): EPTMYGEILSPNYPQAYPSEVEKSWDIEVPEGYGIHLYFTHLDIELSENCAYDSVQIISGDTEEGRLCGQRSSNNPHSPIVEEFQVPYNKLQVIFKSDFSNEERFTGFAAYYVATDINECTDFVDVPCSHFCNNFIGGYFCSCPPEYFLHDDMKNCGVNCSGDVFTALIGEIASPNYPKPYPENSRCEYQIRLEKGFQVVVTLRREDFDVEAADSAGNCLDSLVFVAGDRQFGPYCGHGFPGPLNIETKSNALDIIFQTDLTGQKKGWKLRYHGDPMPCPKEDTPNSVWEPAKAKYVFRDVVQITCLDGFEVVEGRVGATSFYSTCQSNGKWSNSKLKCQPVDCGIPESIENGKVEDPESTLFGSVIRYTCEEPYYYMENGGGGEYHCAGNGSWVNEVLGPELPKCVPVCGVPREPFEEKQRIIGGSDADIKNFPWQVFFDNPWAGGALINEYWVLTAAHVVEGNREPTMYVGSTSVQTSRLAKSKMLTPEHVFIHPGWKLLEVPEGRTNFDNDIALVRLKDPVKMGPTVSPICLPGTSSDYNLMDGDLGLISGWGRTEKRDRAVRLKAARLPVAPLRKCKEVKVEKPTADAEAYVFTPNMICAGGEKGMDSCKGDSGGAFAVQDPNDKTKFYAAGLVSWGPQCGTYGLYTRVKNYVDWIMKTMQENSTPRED
T1 sequence (P00736 18-705 partner): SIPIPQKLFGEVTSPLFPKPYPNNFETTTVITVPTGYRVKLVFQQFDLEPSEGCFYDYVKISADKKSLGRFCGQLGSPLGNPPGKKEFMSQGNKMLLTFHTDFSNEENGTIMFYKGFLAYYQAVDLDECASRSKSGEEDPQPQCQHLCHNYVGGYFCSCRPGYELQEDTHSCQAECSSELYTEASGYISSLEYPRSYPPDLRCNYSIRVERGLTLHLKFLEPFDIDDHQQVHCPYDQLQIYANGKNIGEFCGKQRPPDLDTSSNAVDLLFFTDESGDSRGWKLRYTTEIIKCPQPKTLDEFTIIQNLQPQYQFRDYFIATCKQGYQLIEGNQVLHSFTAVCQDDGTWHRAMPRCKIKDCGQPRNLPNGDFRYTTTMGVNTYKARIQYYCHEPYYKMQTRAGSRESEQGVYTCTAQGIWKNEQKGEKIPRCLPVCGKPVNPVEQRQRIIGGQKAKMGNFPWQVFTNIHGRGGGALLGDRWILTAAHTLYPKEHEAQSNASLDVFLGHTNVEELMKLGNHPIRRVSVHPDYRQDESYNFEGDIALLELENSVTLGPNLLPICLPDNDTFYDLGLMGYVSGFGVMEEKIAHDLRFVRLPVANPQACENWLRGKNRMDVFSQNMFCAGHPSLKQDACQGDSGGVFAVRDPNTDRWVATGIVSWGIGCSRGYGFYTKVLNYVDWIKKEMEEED
T1 sequence (P02745 23-245 partner): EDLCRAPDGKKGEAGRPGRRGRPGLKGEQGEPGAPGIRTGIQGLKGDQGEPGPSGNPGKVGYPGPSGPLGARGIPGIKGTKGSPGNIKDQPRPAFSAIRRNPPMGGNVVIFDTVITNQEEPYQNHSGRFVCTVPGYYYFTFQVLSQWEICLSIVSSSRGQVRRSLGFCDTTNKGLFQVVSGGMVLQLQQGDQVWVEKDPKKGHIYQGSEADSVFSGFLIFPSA
T1 sequence (P02746 28-253 partner): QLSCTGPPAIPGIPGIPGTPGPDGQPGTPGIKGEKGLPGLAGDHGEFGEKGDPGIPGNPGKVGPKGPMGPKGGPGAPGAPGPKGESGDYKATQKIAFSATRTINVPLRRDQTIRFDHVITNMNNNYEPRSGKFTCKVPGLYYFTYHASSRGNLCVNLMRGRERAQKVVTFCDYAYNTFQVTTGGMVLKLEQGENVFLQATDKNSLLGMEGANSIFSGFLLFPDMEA
T1 sequence (P02747 29-245 partner): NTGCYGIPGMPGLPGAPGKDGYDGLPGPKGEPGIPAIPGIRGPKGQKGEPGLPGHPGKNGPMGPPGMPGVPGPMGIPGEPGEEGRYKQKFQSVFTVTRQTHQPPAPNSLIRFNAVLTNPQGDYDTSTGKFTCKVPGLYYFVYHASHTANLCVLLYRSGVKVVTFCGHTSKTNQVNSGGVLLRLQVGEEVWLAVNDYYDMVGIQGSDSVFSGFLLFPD

Structure (SMILES): Cc1ccc(S(=O)(=O)Nc2ccc(S(=O)(=O)O)c3cc(S(=O)(=O)O)cc(S(=O)(=O)O)c23)cc1NS(=O)(=O)c1cccc(NC(=O)Nc2cccc(S(=O)(=O)Nc3cc(S(=O)(=O)Nc4ccc(S(=O)(=O)O)c5cc(S(=O)(=O)O)cc(S(=O)(=O)O)c45)ccc3C)c2)c1 [8,8'-[Ureylenebis[(m-phenylenesulfonylimino) (4-methyl-3,1-phenylenesulfonyl)imino]]di-1,3,5-naphthalenetrisulfonic acid, hexasodium salt]
- Cl 026* Wells [1]: +3 Wells
- Shunt Inhibition 036* Wells [2]: N
- C-Late 035* Wells [3]: +1 Wells

Structure (SMILES): O=C(Nc1cccc(S(=O)(=O)Nc2cccc(S(=O)(=O)Nc3cc(S(=O)(=O)O)cc4cc(S(=O)(=O)O)cc(S(=O)(=O)O)c34)c2)c1)Nc1cccc(S(=O)(=O)Nc2cccc(S(=O)(=O)Nc3cc(S(=O)(=O)O)cc4cc(S(=O)(=O)O)cc(S(=O)(=O)O)c34)c2)c1 [8,8'-[Ureylenebis[[(1,3-phenylenesulfonylimino)-1,3-phenylenesulfonyl]imino]]di-1,3,6-naphthalenetrisulfonic acid, hexasodium salt]
- Cl 026* Wells [1]: +4 Wells
- Shunt Inhibition 036* Wells [2]: +1 Wells
- C-Late 035* Wells [3]: +5 Wells

Structure (SMILES): Cc1ccc(C(=O)Nc2ccc(S(=O)(=O)O)c3cc(S(=O)(=O)O)cc(S(=O)(=O)O)c23)cc1NC(=O)c1cccc(NC(=O)Nc2cccc(C(=O)Nc3cc(C(=O)Nc4ccc(S(=O)(=O)O)c5cc(S(=O)(=O)O)cc(S(=O)(=O)O)c45)ccc3C)c2)c1 [Suramin, reference compound]
- activity as a complement inhibitor [4]: moderately active
- Cl 026* Wells [1]: +4 Wells
- C-Late 035* Wells [3]: +2 Wells

Structure (SMILES): Cc1ccc(NC(=O)Nc2ccc(C)c(S(=O)(=O)Nc3ccc(C)c(S(=O)(=O)Nc4cc(S(=O)(=O)[O-])cc5cc(S(=O)(=O)[O-])cc(S(=O)(=O)[O-])c45)c3)c2)cc1S(=O)(=O)Nc1ccc(C)c(S(=O)(=O)Nc2cc(S(=O)(=O)[O-])cc3cc(S(=O)(=O)[O-])cc(S(=O)(=O)[O-])c23)c1.[Na+].[Na+].[Na+].[Na+].[Na+].[Na+] [8,8'-[Ureylenebis[[[(6-methyl-3,1-phenylene)sulfonyl]imino]-[[(6-methyl-3,1-phenylene)sulfonyl]imino]]]di-1,3,6-naphthalenetrisulfonic acid, hexasodium salt]
- Cl 026* Wells [1]: +3 Wells
- Shunt Inhibition 036* Wells [2]: N
- C-Late 035* Wells [3]: +1 Wells
